# Residues, ends and D or L forms follow the SMILES beside them. *: point of attachment. StBu = CC(C)(C)S*
# Legend:
# mice = details: arginine-rich versus nonarginine peptides; cited from earlier work
# Female Rag2−/− mice [1] = details: mouse, in vivo, iv
# Female Rag2−/− mice [2] = experiment: Assessment of kidney function; format: in vivo; details: one week after injection, still within the reference range
# Female Rag2−/− mice [3] = experiment: In vivo toxicity: animal survival after intravenous injection; details: i.v.; all of the doses tested (0.0125-0.4 mmol/kg)
# Female Rag2−/− mice [4] = details: mouse, in vivo, iv; remark: listed apart in the source
compound,measurement,setting,value
NCCCC(=O)O [GABA],survival of mice exposed to the peptide,mice,mice survived
CC(=O)N[C@@H](CCCNC(=N)N)C(=O)N[C@@H](CCCNC(=N)N)C(=O)N[C@@H](C)C(=O)N[C@@H](C)C(=O)N[C@@H](CC(N)=O)C(=O)N[C@@H](CSSC(C)(C)C)C(=O)N[C@@H](CCCCN)C(=O)O [R2] (Ac-RRAANC(StBu)K-OH),"liver enzyme levels (AST, ALT, ALP) in blood plasma",Female Rag2−/− mice [1],no significant differences
CC(=O)N[C@@H](CCCNC(=N)N)C(=O)N[C@@H](CCCNC(=N)N)C(=O)N[C@@H](CCCNC(=N)N)C(=O)N[C@@H](C)C(=O)N[C@@H](C)C(=O)N[C@@H](CC(N)=O)C(=O)N[C@@H](CSSC(C)(C)C)C(=O)N[C@@H](CCCCN)C(=O)O [R3] (Ac-RRRAANC(StBu)K-OH),creatinine levels in urine,Female Rag2−/− mice [2]; 0.1 mmol/kg i.v.,observable increase
same,total protein levels in urine,Female Rag2−/− mice [2]; 0.1 mmol/kg i.v.,observable increase
same,"liver enzyme levels (AST, ALT, ALP) in blood plasma",Female Rag2−/− mice [1],no significant differences
ACSSSPSKHCG [TD],survival of mice exposed to the peptide,mice,mice survived
RAANCK [R1],observable toxicity in animals,Female Rag2−/− mice [3],did not exhibit any observable toxicity
same,"liver enzyme levels (AST, ALT, ALP) in blood plasma",Female Rag2−/− mice [1],no significant differences
RRRRAANCK [R4],creatinine levels in urine,Female Rag2−/− mice [2]; 0.5 mmol/kg i.v.,observable increase
same,total protein levels in urine,Female Rag2−/− mice [2]; 0.5 mmol/kg i.v.,observable increase
same,WBC counts,Female Rag2−/− mice [4],significant increase
same,platelet counts,Female Rag2−/− mice [4],significant decrease
same,AST levels in blood plasma,Female Rag2−/− mice [1],significant increase
RRRRRAANCK [R5],WBC counts,Female Rag2−/− mice [4],significant increase
same,platelet counts,Female Rag2−/− mice [4],significant decrease
same,ALP levels in blood plasma,Female Rag2−/− mice [1],increased
same,ALT levels in blood plasma,Female Rag2−/− mice [1],increased
same,AST levels in blood plasma,Female Rag2−/− mice [1],significant increase
RRRRRRAANCK [R6],WBC counts,Female Rag2−/− mice [4],significant increase
same,"liver enzyme levels (AST, ALT, ALP) in blood plasma",Female Rag2−/− mice [1],no significant differences
